Laboratory results published in ChEMBL document CHEMBL1806463, “Synthesis, biological evaluation and docking studies of octane-carboxamide based renin inhibitors with extended segments toward S3' site of renin” (Bioorg Med Chem, 2011).

Biological target: T1, Renin (Homo sapiens) (UniProt P00797)
T1 sequence (whole entry): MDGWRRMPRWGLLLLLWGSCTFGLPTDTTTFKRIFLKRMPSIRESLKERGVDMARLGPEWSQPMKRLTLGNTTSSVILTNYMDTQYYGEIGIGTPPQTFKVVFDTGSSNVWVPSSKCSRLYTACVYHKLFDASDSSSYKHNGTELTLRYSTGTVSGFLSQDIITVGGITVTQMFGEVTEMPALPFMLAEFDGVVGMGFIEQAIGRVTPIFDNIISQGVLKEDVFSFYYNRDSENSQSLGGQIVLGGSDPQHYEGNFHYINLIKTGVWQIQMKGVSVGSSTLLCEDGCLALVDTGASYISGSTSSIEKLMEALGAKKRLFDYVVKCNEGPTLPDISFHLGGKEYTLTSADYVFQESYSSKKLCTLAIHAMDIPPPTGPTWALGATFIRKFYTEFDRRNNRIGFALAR
Experiment: Ratio IC50 for aliskiren to compound for renin

**Q.** Which Ratio IC50 does the source give for COCCCOc1cc(C[C@@H](C[C@H](N)[C@@H](O)C[C@H](C(=O)NCC(C)(C)Cn2ccnn2)C(C)C)C(C)C)ccc1OC here?
**A.** The Ratio IC50 was 10.

Biological target: T2, Renin (Homo sapiens, UniProt P00797)
T2 sequence (P00797 whole entry): T1 sequence (whole entry)
Experiment: Inhibition of renin measured every 30 secs for 15 mins by fluorimetric analysis

**Q.** COCCCOc1cc(C[C@@H](C[C@H](N)[C@@H](O)C[C@H](C(=O)NCC(C)(C)CNS(C)(=O)=O)C(C)C)C(C)C)ccc1OC was tested. Which IC50 did it give?
**A.** The IC50 was 4.23 nM.

**Q.** With COCCCOc1cc(C[C@@H](C[C@H](N)[C@@H](O)C[C@H](C(=O)NCC(C)(C)Cn2ccnn2)C(C)C)C(C)C)ccc1OC as the molecule, how does the IC50 read?
**A.** The IC50 was 0.2 nM.

**Q.** How did the IC50 turn out when CCCC(=O)NCC(C)(C)CNC(=O)[C@@H](C[C@H](O)[C@@H](N)C[C@H](Cc1ccc(OC)c(OCCCOC)c1)C(C)C)C(C)C was run?
**A.** The IC50 was 1.12 nM.

**Q.** COCCCOc1cc(C[C@@H](C[C@H](N)[C@@H](O)C[C@H](C(=O)NCC(C)(C)CNC(=O)C(C)(C)C)C(C)C)C(C)C)ccc1OC was tested. Which IC50 did it give?
**A.** Its IC50 is 4.13 nM.

**Q.** How did the IC50 turn out when CCOC(=O)NCC(C)(C)CNC(=O)[C@@H](C[C@H](O)[C@@H](N)C[C@H](Cc1ccc(OC)c(OCCCOC)c1)C(C)C)C(C)C was run?
**A.** Its IC50 is 0.81 nM.

**Q.** How did the IC50 turn out when COCCCOc1cc(C[C@@H](C[C@H](N)[C@@H](O)C[C@H](C(=O)NCC(C)(C)CNC(=O)N(C)C)C(C)C)C(C)C)ccc1OC was run?
**A.** The IC50 was 0.36 nM.

**Q.** For COCCCOc1cc(C[C@@H](C[C@H](N)[C@@H](O)C[C@H](C(=O)NCC(C)(C)CNC(=O)Cc2ccccc2)C(C)C)C(C)C)ccc1OC, which IC50 is on record?
**A.** Its IC50 is 1.64 nM.

**Q.** Which IC50 does the source give for COCCCOc1cc(C[C@@H](C[C@H](N)[C@@H](O)C[C@H](C(=O)NCC(C)(C)CNS(N)(=O)=O)C(C)C)C(C)C)ccc1OC here?
**A.** Its IC50 is 0.79 nM.

**Q.** How did the IC50 turn out when COCCCOc1cc(C[C@@H](C[C@H](N)[C@@H](O)C[C@H](C(=O)NCC(C)(C)CNS(=O)(=O)c2ccc(C)cc2)C(C)C)C(C)C)ccc1OC was run?
**A.** The IC50 was 1.15 nM.

**Q.** Which IC50 does the source give for CCCCCC(=O)NCC(C)(C)CNC(=O)[C@@H](C[C@H](O)[C@@H](N)C[C@H](Cc1ccc(OC)c(OCCCOC)c1)C(C)C)C(C)C here?
**A.** Its IC50 is 0.83 nM.

**Q.** How did the IC50 turn out when COCCCOc1cc(C[C@@H](C[C@H](N)[C@@H](O)C[C@H](C(=O)NCC(C)(C)CNC(=O)c2ccccc2)C(C)C)C(C)C)ccc1OC was run?
**A.** Its IC50 is 1.02 nM.

**Q.** With CCS(=O)(=O)NCC(C)(C)CNC(=O)[C@@H](C[C@H](O)[C@@H](N)C[C@H](Cc1ccc(OC)c(OCCCOC)c1)C(C)C)C(C)C as the molecule, how does the IC50 read?
**A.** The IC50 was 0.91 nM.

**Q.** How did the IC50 turn out when COCCCOc1cc(C[C@@H](C[C@H](N)[C@@H](O)C[C@H](C(=O)NCC(C)(C)CNC(=O)CC(C)C)C(C)C)C(C)C)ccc1OC was run?
**A.** Its IC50 is 1.48 nM.

**Q.** Which IC50 does the source give for CCC(=O)NCC(C)(C)CNC(=O)[C@@H](C[C@H](O)[C@@H](N)C[C@H](Cc1ccc(OC)c(OCCCOC)c1)C(C)C)C(C)C here?
**A.** The IC50 was 1.08 nM.

**Q.** With COCCCOc1cc(C[C@@H](C[C@H](N)[C@@H](O)C[C@H](C(=O)NCC(C)(C)CNC(=O)C(F)(F)F)C(C)C)C(C)C)ccc1OC as the molecule, how does the IC50 read?
**A.** The IC50 was 4.85 nM.

**Q.** Which IC50 does the source give for COCCCOc1cc(C[C@@H](C[C@H](N)[C@@H](O)C[C@H](C(=O)NCC(C)(C)CN)C(C)C)C(C)C)ccc1OC here?
**A.** Its IC50 is 2.88 nM.

**Q.** For COCCCOc1cc(C[C@@H](C[C@H](N)[C@@H](O)C[C@H](C(=O)NCC(C)(C)CNC(=O)c2ccc(OC)cc2)C(C)C)C(C)C)ccc1OC, which IC50 is on record?
**A.** The IC50 was 3.84 nM.
